US20110039793A1, “Application of ginsenoside Rb1 in preparing medicaments for treating dilated cardiomyopathy” (priority 2008, published 2011)

Legend:
[1] = test system: cTnT^R141W transgenic dilated cardiomyopathy mice model; assay: M-mode echocardiography, cardiac function and morphous, once a month; assay type: in vivo; parameters: CO (Cardiac Output) / LVAW; d (left ventricular anterior wall thickness, end of diastole) / LV Mass (AW) (weight of the left ventricular) / Diameter; d (inner diameter of the left ventricular, end of diastole) / Volume; d (volume of the left ventricular, end of diastole) / SV (Stroke Volume): unit not given here; conditions: for Diameter; d (inner diameter of the left ventricular, end of diastole) / Diameter; s (inner diameter of the left ventricular, end of systole) / EF (Ejection Fraction) / FS (Fractional Shortening) / LV Mass (AW) (weight of the left ventricular) / LVAW; d (left ventricular anterior wall thickness, end of diastole) / LVAW; s (left ventricular anterior wall thickness, end of systole) / LVPW; d (left ventricular posterior wall thickness, end of diastole) / LVPW; s (left ventricular posterior wall thickness, end of systole) / SV (Stroke Volume) / Volume; d (volume of the left ventricular, end of diastole) / Volume; s (volume of the left ventricular, end of systole) / CO (Cardiac Output): 75 mg/kg in drinking water
Protocol: (§1) The positive mice at 1.5 months old are distributed by weight and cardiac function uniformly into the model group and the ginsenoside Rb1 administration group according to the echocardiography result, and each group comprises twelve mice. Ginsenoside Rb1, 75 mg/kg (State Yao zhun Zi, Yun Nan Tean Na Pharmaceutical Co., Ltd) is put into animal drinking water, and continuously administered for seven months.
Echocardiography detection is performed once a month. Mice were anesthetized with tribromoethanol, scanned by small animal ultrasonic apparatus (Vevo 770 small animal ultrasonic detection system, Canada), with 30 MHz probe, M-mode echocardiography were analyzed: Body weight (BW), LVPW, d (the thickness of the left ventricular posterior wall at the end of the diastole), LVPW, s (the thickness of the left ventricular posterior wall at the end of the systole), LVAW, d (the thickness of the left ventricular anterior wall at the end of the diastole), LVAW, s (the thickness of the left ventricular anterior wall at the end of the systole), LV Mass (the weight of the left ventricular), Diameter, s (the inner diameter of the left ventricular at the end of the systole), Diameter, d (the inner diameter of the left ventricular at the end of the diastole), Volume, s (the volume of the left ventricular at the end of the systole), Volume, d (the volume of the left ventricular at the end of the diastole), SV (Stroke Volume), EF (Ejection Fraction), FS (Fractional Shortening) and CO (Cardiac Output).

[2] = test system: cTnT^R141W transgenic dilated cardiomyopathy mice model; assay: Survival analysis of cTnT^R141W transgenic mice after long-term administration; assay type: in vivo; conditions: 75 mg/kg in drinking water for seven months
Protocol: as §1
Individual death occurs in the feeding process of the cTnT^R141W transgenic mice model. From the beginning of administration to the observation endpoint, the death of animal of each group is recorded. The death of animal of the negative control group is zero, and the model group is four, and the ginsenoside Rb1 group is two.

[3] = long-term administration, echocardiography

## CC(C)=CCC[C@](C)(O[C@@H]1O[C@H](CO[C@@H]2O[C@H](CO)[C@@H](O)[C@H](O)[C@H]2O)[C@@H](O)[C@H](O)[C@H]1O)[C@H]1CC[C@]2(C)[C@@H]1[C@H](O)C[C@@H]1[C@@]3(C)CC[C@H](O[C@@H]4O[C@H](CO)[C@@H](O)[C@H](O)[C@H]4O[C@@H]4O[C@H](CO)[C@@H](O)[C@H](O)[C@H]4O)C(C)(C)[C@@H]3CC[C@]12C [Rb1, ginsenoside Rb1]
[1]; 4 month of administration
  Diameter; d (inner diameter of the left ventricular, end of diastole): 4.56 ± 0.26
  Diameter; s (inner diameter of the left ventricular, end of systole): 3.38 ± 0.35
  EF (Ejection Fraction): 51.07 ± 6.01
  FS (Fractional Shortening): 26.05 ± 3.64
  LV Mass (AW) (weight of the left ventricular): 131.15 ± 12.93
  LVAW; d (left ventricular anterior wall thickness, end of diastole): 0.81 ± 0.06
  LVAW; s (left ventricular anterior wall thickness, end of systole): 1.17 ± 0.11
  LVPW; d (left ventricular posterior wall thickness, end of diastole): 0.71 ± 0.06
  LVPW; s (left ventricular posterior wall thickness, end of systole): 0.89 ± 0.12
  SV (Stroke Volume): 48.37 ± 3.32
  Volume; d (volume of the left ventricular, end of diastole): 95.93 ± 13.01
  Volume; s (volume of the left ventricular, end of systole): 47.56 ± 11.76
[1]; 5 month of administration
  CO (Cardiac Output): 23.18 ± 3.13
  Diameter; d (inner diameter of the left ventricular, end of diastole): 4.93 ± 0.30
  Diameter; s (inner diameter of the left ventricular, end of systole): 3.86 ± 0.32
  EF (Ejection Fraction): 43.83 ± 3.93
  FS (Fractional Shortening): 21.76 ± 2.21
  LV Mass (AW) (weight of the left ventricular): 150.86 ± 25.12
  LVAW; d (left ventricular anterior wall thickness, end of diastole): 0.82 ± 0.12
  LVAW; s (left ventricular anterior wall thickness, end of systole): 1.13 ± 0.10
  LVPW; d (left ventricular posterior wall thickness, end of diastole): 0.74 ± 0.06
  LVPW; s (left ventricular posterior wall thickness, end of systole): 0.82 ± 0.08
  SV (Stroke Volume): 50.03 ± 5.63
  Volume; d (volume of the left ventricular, end of diastole): 115.02 ± 16.33
  Volume; s (volume of the left ventricular, end of systole): 64.99 ± 12.65
[1]; 6 month of administration
  CO (Cardiac Output): 25.99 ± 2.23
  Diameter; d (inner diameter of the left ventricular, end of diastole): 5.35 ± 0.19
  Diameter; s (inner diameter of the left ventricular, end of systole): 4.38 ± 0.19
  EF (Ejection Fraction): 37.03 ± 3.07
  FS (Fractional Shortening): 18.01 ± 1.71
  LV Mass (AW) (weight of the left ventricular): 180.65 ± 5.80
  LVAW; d (left ventricular anterior wall thickness, end of diastole): 0.74 ± 0.04
  LVAW; s (left ventricular anterior wall thickness, end of systole): 1.09 ± 0.09
  LVPW; d (left ventricular posterior wall thickness, end of diastole): 0.80 ± 0.01
  LVPW; s (left ventricular posterior wall thickness, end of systole): 0.93 ± 0.06
  SV (Stroke Volume): 51.20 ± 5.31
  Volume; d (volume of the left ventricular, end of diastole): 138.41 ± 11.40
  Volume; s (volume of the left ventricular, end of systole): 87.21 ± 8.99
[1]; 7 month of administration
  CO (Cardiac Output): 24.35 ± 4.80
  Diameter; d (inner diameter of the left ventricular, end of diastole): 5.46 ± 0.34
  Diameter; s (inner diameter of the left ventricular, end of systole): 4.60 ± 0.44
  EF (Ejection Fraction): 33.02 ± 6.64
  FS (Fractional Shortening): 15.92 ± 3.53
  LV Mass (AW) (weight of the left ventricular): 190.72 ± 20.29
  LVAW; d (left ventricular anterior wall thickness, end of diastole): 0.79 ± 0.12
  LVAW; s (left ventricular anterior wall thickness, end of systole): 1.08 ± 0.17
  LVPW; d (left ventricular posterior wall thickness, end of diastole): 0.82 ± 0.13
  LVPW; s (left ventricular posterior wall thickness, end of systole): 0.87 ± 0.19
  SV (Stroke Volume): 47.35 ± 6.92
  Volume; d (volume of the left ventricular, end of diastole): 145.92 ± 21.42
  Volume; s (volume of the left ventricular, end of systole): 98.58 ± 22.36
[1]; [3]
  cardiac function: improve the cardiac function
  dilation of cardiac chamber: significantly reduce
[2]; vs model group
  mortality rate (survival analysis, FIG. 2): reduce the mortality rate
[2]; group of twelve mice, model group four, negative control zero
  death of animal of the group (number): two
